According to patent publication US9771345B2, “Coferons and methods of making and using them” (Cornell University, priority 2009, dated 2017):

Assays:
[1] = Alizarin Red S displacement: equilibrium between boronic acid and diols or other ligands; assay type: physicochemical; conditions: 0.10 M phosphate buffer, pH 7.4; no Keq range given
Text: To assess the potential of boronic acid diol pairs as potential summa linkers within Coferons, the Alizarin Red S method was used essentially as described (Springsteen, G. and Wang, B, Tetrahedron 58: 5291-5300 (2002), which is hereby incorporated by reference in its entirety). Alizarin Red S gives a red color when free in solution, and shifts to yellow when complexed to boronic acids.
To determine equilibria between boronic acid species and diols or other ligands, a solution containing 2.0×10^−3 M boronic acid, 1.0×10^−4 M of ARS in 0.10 M phosphate buffer, pH 7.4 was prepared. Diol or other ligands from 3×10^−2 M to 1.0×10^−4 M were serially diluted into the above boronic acid-ARS mix, and absorbance spectra were determined from 350 to 750 nm. (stock solutions were made to 100 mM in DMSO). The higher concentrations of diol would displace the boronic acid from complexation with ARS, liberating free ARS and turning the solution pink. The percent complexed and percent free ARS was determined by comparing absorbance level to fully complexed and free ARS at 440 and 550 nm. The approximate equilibrium constant Keq2 for a given boronic acid-diol complexation was estimated using the formula: Keq=[ARS−PBA]/[ARS]×[PBA] [PBA]=[ARS−PBA]/[ARS]×Keq [Sorb−PBA]=0.002−[PBA]−[ARS−PBA] [Sorb]=Total Sorb−[Sorb−PBA] Keq2=[Sorb PBA]/[Sorb]×[PBA] (where ARS=Alizarin Red S; Sorb=sorbitol; and PBA=Phenylboronic acid as an example).

[2] = LC-MS/MS determination of dimerization of summa linkers; assay type: physicochemical; conditions: for Dimer 4 level: after 115 h
Text: For summa linkers and coferons that form dimers that are slow to hydrolyze/equilibrate under the chromatographic conditions, evidence for dimerization or oligomerization may be generated using LC-MS/MS methods in which the monomeric and dimeric species are separated by reversed-phase liquid chromatography and identified using tandem mass spectrometric methods, typically utilizing MRM transitions to maximize sensitivity. Often this approach is capable of separating and quantifying isomeric and diastereomeric dimeric states of the summa linker and coferon assemblies.
Typically, a solution of the following homodimeric summa linker was incubated under various conditions of pH, concentration, organic cosolvent, or protein additives, etc. and aliquots were chromatographed on a Primesep 200 (150×4.6 mm, 5μ) RP-HPLC column using a flow rate of 1.0 mL/min and a linear gradient of 0.1% aqueous TFA/acetonitrile over 25-30 minutes. Preparations containing a known amount of dimeric species (as determined by NMR for example) can be employed as a standard to allow for accurate quantitation of monomeric and dimeric states. For example, using such conditions, 4 isomeric dimers of the following racemic amino-cyclobutanone summa linker moiety (RT 7.29 min; example 47; >99.7% monomeric) were quantified under various conditions. When incubated at 0.125 mg/mL at 20° C. at pH 2.0 in 0.1% TFA, dimers-1, -2 & -3 eluting at 15, 15.5 and 16 min, respectively, increased from 0.06%, 0.06% and 0.11% at time zero to 2.35, 2.3%, and 5.2% after 169 h; dimer-4 was not observed under these conditions. […] Complete equilibrium between monomer and dimer-4 was not achieved within this timeframe, as dimer-4 was still increasing at 169 h.

[3] = 0.125 mg/mL, 20° C., pH 2.0 in 0.1% TFA, after 169 h
[4] = 0.125 mg/mL, 20° C., pH 2.0 in 0.1% TFA, time zero

SMILES	affinity of diol or other ligand for boronic acids in aqueous solution (in words) [1]	also measured
O=C(CO)CO [1,3-dihydroxyacetone]	lower affinities for boronic acids	–
O=C(O)C(O)c1cccc(F)c1F (stereo not shown) [2,3-difluoromandelic acid, 2,3-Difluoromandelic acid]	lower affinities for boronic acids	–
Cc1ccc(O)c(N)c1 [2-amino-4-methylphenol, 2-Amino-4-methylphenol]	lower affinities for boronic acids	–
O=C(O)C(O)c1cc(F)ccc1F (stereo not shown) [2,5-difluoromandelic acid, 2,5-Difluoromandelic acid]	lower affinities for boronic acids	–
CNCC(O)CO (stereo not shown) [3-methylamino-1,2-propanediol, 3-Methylamino-1,2-propanediol]	lower affinities for boronic acids	–
O=C(O)C(=O)Cc1ccccc1 [phenylpyruvic acid, Phenylpyruvic acid]	lower affinities for boronic acids	–
CCOC(=O)c1cnc(NC2CCC2=O)nc1C (stereo not shown) [Example 47, Ethyl 4-methyl-2-((2-oxocyclobutyl)amino)pyrimidine-5-carboxylate]	–	dimer-4 formation ([2]; 0.125 mg/mL, 20° C., pH 2.0 in 0.1% TFA): not observed; dimer-1 level [2, 3]: 2.35%; dimer-2 level [2, 3]: 2.3%; dimer-3 level [2, 3]: 5.2%; dimer-1 level [2, 4]: 0.06%; dimer-2 level [2, 4]: 0.06%; dimer-3 level [2, 4]: 0.11%; fraction of dimer-4 at equilibrium ([2]; 0.5 mg/mL, pH7.4 HEPES buffer with BSA): > 14%; Dimer 4 level ([2]; 0.5 mg/mL, pH7.4 HEPES buffer, in the absence of BSA): 4.73%; Dimer 4 level ([2]; 0.5 mg/mL, pH7.4 HEPES buffer, in the presence of BSA): 13.75%; dimer-4 level ([2]; pH7.4 HEPES buffer, 169 h): 1.82%; levels of dimers-1, -2, and -3 ([2]; pH7.4 HEPES buffer, over 169 h): below 0.01%; dimer-4 level ([2]; pH7.4 HEPES buffer, start): < 0.015%
O=C(O)C(O)c1ccccc1 (racemic) [DL-mandelic acid, DL-Mandelic acid]	lower affinities for boronic acids	–
NC(CO)(CO)CO [tris base (TRIZMA Base), Tris Base (TRIZMA Base)]	lower affinities for boronic acids	–
O=C(O)C(O)c1c(F)cccc1F (stereo not shown) [2,6-difluoromandelic acid, 2,6-Difluoromandelic acid]	lower affinities for boronic acids	–
CNc1ccccc1O [2-(methylamino)phenol, 2-(Methylamino)phenol]	lower affinities for boronic acids	–
CC(O)C(=O)O (stereo not shown) [lactic acid (solution), Lactic acid]	lower affinities for boronic acids	–
CC(O)(C(=O)O)C(F)(F)F (stereo not shown) [3,3,3-Trifluoro-2-hydroxy-2-methylpropionic Acid]	lower affinities for boronic acids	–
O=C(O)C(O)c1ccc(F)cc1F (stereo not shown) [2,4-difluoromandelic acid, 2,4-Difluoromandelic acid]	lower affinities for boronic acids	–
O=C([O-])C(=O)CO.[Li+] [hydroxypyruvic acid, lithium salt, Hydroxypyruvic acid, Lithium salt]	lower affinities for boronic acids	–
O=C(O)C(O)c1ccccc1F (stereo not shown) [2-fluoromandelic acid, 2-Fluoromandelic acid]	lower affinities for boronic acids	–
O=C(NCCO)c1ccccc1O [N-(2-hydroxyethyl)salicylamide, N-(2-Hydroxyethyl)salicylamide]	lower affinities for boronic acids	–

SMILES	affinity of diol or other ligand for boronic acids in aqueous solution (in words) [1]	also measured
O=C[C@H](O)[C@@H](O)[C@H](O)[C@H](O)CO [D-(+)-glucose, D-(+)-Glucose]	lower affinities for boronic acids	–
O=C(O)C(O)(C(F)(F)F)C(F)(F)F [3,3,3-Trifluoro-2-hydroxy-2-(trifluoromethyl)propionic acid]	lower affinities for boronic acids	–
O[C@@H]1CCCC[C@H]1O (relative stereo) [trans-1,2-cyclohexanediol, trans-1,2-Cyclohexanediol]	lower affinities for boronic acids	–
O=C(O)C1(O)CNC1 [3-hydroxyazetidine-3-carboxylic acid]	lower affinities for boronic acids	–
CC(C)(O)C(C)(C)O [pinacol, Pinacol]	lower affinities for boronic acids	–
O=C(O)C(O)c1cc(F)cc(F)c1 (stereo not shown) [3,5-difluoromandelic acid, 3,5-Difluoromandelic acid]	lower affinities for boronic acids	–
CC(N)(CO)CO [2-amino-2-methyl-1,3-propanediol, 2-Amino-2-methyl-1,3-propanediol]	lower affinities for boronic acids	–
COc1cccc(CO)c1O [2-hydroxy-3-methoxybenzyl alcohol, 2-Hydroxy-3-methoxybenzyl alcohol]	lower affinities for boronic acids	–
O=C(O)C(O)c1ccc(C(F)(F)F)cc1 (stereo not shown) [4-(trifluoromethyl)mandelic acid, 4-(Trifluoromethyl)mandelic acid]	lower affinities for boronic acids	–
OCC(CO)(CO)CO [pentaerythritol, Pentaerythritol]	lower affinities for boronic acids	–
O[C@@H]1CNC[C@@H]1O [(3S,4R)-pyrrolidine-3,4-diol]	lower affinities for boronic acids	–
O[C@@H]1CCCC[C@@H]1O [cis-1,2-cyclohexanediol, cis-1,2-Cyclohexanediol]	lower affinities for boronic acids	–
CC(CO)(CO)CO [1,1,1-tris(hydroxymethyl)ethane, 1,1,1-Tris(hydroxymethyl)ethane]	lower affinities for boronic acids	–
CC(=O)Nc1ccccc1O [2-acetamidophenol, 2-Acetamidophenol]	lower affinities for boronic acids	–
O=C(O)c1c(O)cccc1O [2,6-dihydroxybenzoic acid, 2,6-Dihydroxybenzoic acid]	lower affinities for boronic acids	–
O=C(O)c1ccccc1O [salicylic acid, Salicylic acid]	lower affinities for boronic acids	–
CC(CO)(CO)C(=O)O [2,2-bis(hydroxymethyl)propionic acid, 2,2-Bis(hydroxymethyl)propionic acid]	lower affinities for boronic acids	–
